Where two headings read alike, the source gives them in different places.
Experiments:
[1] = tested on: T. cruzi (Dm28c-Luc) trypomastigotes; test: microbe, parasite or virus in culture; format: cell-based, Trypanosoma cruzi
Experimental: The screening assays were performed with T. cruzi clone Dm28c (TcI) genetically modified to express luciferase gene (Dm28c-Luc), kindly provided by Dr. Cristina Henriques. Trypomastigotes were isolated from T. cruzi-infected Vero cell monolayers (10:1 parasites/host cell ratio). On the 4th day post-infection (dpi), free trypomastigotes in the culture supernatant were harvested, and the number of parasites/mL was quantified in a Neubauer chamber.
The trypanocidal activity of the pyrazole-thiazoline derivatives was evaluated against trypomastigote and intracellular amastigote forms of T. cruzi (Dm28c-Luc). Tissue-derived trypomastigotes (1 × 10^6 parasites/well) were incubated with pyrazole-thiazoline derivatives and Bz in different concentrations (0.41–100 µM) for 24 h at 37 °C in a humidified atmosphere and 5% CO2. The parasite viability was determined by the addition of luciferin (300 µg/mL), followed by luminescence detection on the GloMax microplate reader (Promega Corporation, Madison, WI, USA).
(§1) After 72 h of treatment, luciferin (300 µg/mL) was added to the culture, and the viability of the parasites was assessed by reading the luminescent signal on the GloMax reader (Promega Corporation, Madison, WI, USA). Controls were also performed in non-toxic concentrations of DMSO (≤ 1%). The concentration that reduces the number of viable parasites by 50% (IC50) or 90% (IC90) was calculated by linear regression. The selectivity index (SI) was calculated as CC50/IC50 for each parasite form.

[2] = tested on: T. cruzi (Dm28c-Luc) intracellular amastigotes; test: Trypanocidal activity against intracellular amastigotes in infected Vero cell monolayers; format: cell-based, Trypanosoma cruzi; conditions: for IC90: read-out: Trypanocidal Activity Intracellular Amastigotes IC90; for Intracellular Amastigotes SI (CC50 of Vero cells/IC50): selectivity index vs Vero cells
Experimental: The susceptibility of intracellular amastigotes to pyrazole-thiazoline derivatives (series 1 and 2) was evaluated using 24 h T. cruzi-infected Vero cell monolayers (10:1 parasite/host cell ratio). Then, the cultures were washed with PBS to remove non-internalized parasites, and 200 μL of fresh medium with a serial dilution of pyrazole-thiazoline derivatives and Bz (0.41–100 µM) was added for 72 h at 37 °C.
as §1

[3] = Cytotoxicity in vitro assay (CellTiter-Glo); format: cell-based; conditions: African green monkey, Vero cells, mean ± SD
Experimental: Vero cells, obtained from the Rio de Janeiro Cell Bank (BCRJ code 0245), were dissociated with trypsin–EDTA solution (0.025%), and maintained in RPMI 1640 medium supplemented with 10% fetal bovine serum (FBS) at 37 °C in a humidified atmosphere of 5% CO2.
The compound toxicity was evaluated in Vero cell cultures. Briefly, Vero cells were seeded in 96-well white culture plates at a density of 1.5 × 10^4 cells/well for 24 h at 37 °C and 5% CO2. Thereafter, the cell monolayers were washed with phosphate-buffered saline (PBS) and 200 μL of fresh medium with a serial dilution of the pyrazole-thiazoline derivatives and Bz (1.9–500 µM) added. The cell viability was determined by luminescent assay using the CellTiter-Glo Kit (Promega Corporation, Madison, WI, USA) based on the ATP level. After 72 h of treatment, 20 μL of CellTiter-Glo solution was added per well, and cultures were kept for 2 min under agitation. The luminescent signal was read on the GloMax reader (Promega Corporation, Madison, WI, USA). The concentration of compounds that reduced 50% of cell viability (CC50) was calculated by linear regression. At least three independent assays were performed in duplicate.

[4] = tested on: T. cruzi (Dm28c-Luc)-infected Vero cell spheroids; test: 3D culture model: T. cruzi-infected Vero cell spheroids; format: cell-based, Trypanosoma cruzi; conditions: for DAPI staining fluorescence microscopy of infected microtissue: 100 μM; for parasite load, arbitrary luminescence unit (ALU): 72 h, concentration higher than IC90 (100 μM in Figure 6 legend), untreated ALU = 166,678 ± 22,824
Experimental: Tridimensional Vero cell cultures were obtained as previously described. Briefly, the isolated cells (2 × 10^4/well) were cultured in 96-well U-bottom plates previously coated with 1% agarose. The spheroids were kept for 5 days at 37 °C in RPMI 1640 medium supplemented with 10% FBS for complete three-dimensional organization. Both 2D and 3D culture models were used for trypanocidal activity assays.
Vero cell spheroids were infected for 24 h with 2 × 10^5 trypomastigotes (Dm28c-Luc). […] Parasite load was assessed by the luminescence reaction after adding the luciferase substrate (luciferin 300 µg/mL). In addition, fluorescence microscopy images of untreated and treated T. cruzi-infected spheroids were acquired after fixing the cultures with 4% paraformaldehyde in PBS and 4′,6-diamidino-2-phenylindole (DAPI) staining, a DNA dye. The samples were observed under the Zeiss Axio Imager M2 fluorescence microscope (Carl Zeiss, Baden-Württemberg, Germany).

[5] = tested on: T. cruzi Dm28c-Luc in Vero cell cultures; test: Reversibility (washout) assay; format: cell-based, Trypanosoma cruzi; conditions: 100 µM, 72 h treatment then 72 h drug-free; for inhibition at 100 µM: Trypanosoma cruzi, Vero, read-out: inhibition of cell monolayer infection (intracellular amastigotes) after washout
Experimental: Then, the cultures were washed with PBS, and maintained for another 72 h at 37 °C in a drug-free medium. Trypomastigotes released in the culture supernatant were detected by transferring the culture medium to 96-well plates, followed by luciferin (300 µg/mL) addition. Viable intracellular amastigotes were also accessed by adding luciferin solution to the cell monolayers.

[6] = tested on: T. cruzi (strain Silvio X10/7); design: method as in PMID 30001347; conditions: 16 days treatment of infected Vero cell monolayers; cited from earlier work
[7] = tested on: T. cruzi cysteine proteases (trypomastigote protein extract); test: Proteinase activity in solution (Z-FR-AMC); format: biochemical, Trypanosoma cruzi; conditions: for maximum inhibition of cysteine protease activity: up to 100 µM, Z-FR-AMC substrate
Experimental: Trypomastigote protein extracts (Dm28c-Luc; 10^8 parasites/mL) were obtained as previously described. The cysteine protease activity of the total protein extracts (5 µg) was measured using the reaction buffer (CH3COONa 10 mM, pH 5.0 containing 1 mM DTT), in the presence of the fluorogenic peptide substrate […], CBZ-L-Phenylalanyl-l-Arginine amide (Z -FR-AMC), and serial dilutions of pyrazole-thiazolines derivatives (100–6.25 µM). The samples were incubated for 45 min at room temperature. The variation in arbitrary fluorescence units (AFU), corresponding to the enzymatic cleavage of the fluorogenic substrate, was monitored in a SpectraMax M2e reader (Molecular Devices, Sunnyvale, CA, USA) for 1 h, with excitation values at 370 nm and emission values at 460 nm. Extracts incubated with 0.5% DMSO or with cysteine protease inhibitor E-64 were used as […]. […] The inhibitory activity was expressed as percentage inhibition.

[8] = Trypanosoma cruzi; Dm28c-Luc, 24 h, mean ± SD; read-out: Trypanocidal Activity Trypomastigotes IC90
[9] = selectivity index vs Vero cells
[10] = Dm28c-Luc, 24 h, mean ± SD; read-out: Trypanocidal Activity Trypomastigotes IC50
[11] = Trypanosoma cruzi, 24 h, Dm28c-Luc, 24 h, mean ± SD; read-out: Trypanocidal Activity Trypomastigotes IC50
[12] = Dm28c-Luc in Vero cells, 72 h, mean ± SD, read-out: Trypanocidal Activity Intracellular Amastigotes IC50
[13] = Trypanosoma cruzi, Vero, 72 h, Dm28c-Luc in Vero cells, 72 h, mean ± SD, read-out: Trypanocidal Activity Intracellular Amastigotes IC50
[14] = Trypanosoma cruzi, Vero, pIC50 = −log IC50, Dm28c-Luc clone, read-out: Intracellular Amastigotes pIC50 (converted)
[15] = Trypanosoma cruzi, Dm28c-Luc in Vero cells, 72 h, mean ± SD

Structure (SMILES) | IC90 [1, 8] | Trypomastigotes SI (CC50 of Vero cells/IC50) [1, 9] | CC50 at 72 h [3] | DAPI staining fluorescence microscopy of infected microtissue [4] | parasite load, arbitrary luminescence unit (ALU) [4] | IC50 [1, 11] | IC50 [2, 12] | IC50 [2, 13] | IC50 [2, 14] | IC90 [2, 15] | melting point | Intracellular Amastigotes SI (CC50 of Vero cells/IC50) [2] | also measured
O=C(Cn1ccnc1[N+](=O)[O-])NCc1ccccc1 [Bz, benznidazole, reference compound] | 95.9 ± 4.7 µM | >18.9 | > 500 µM | drastic reduction in the infection profile | 20,024 ± 2796 ALU |  |  |  |  |  |  |  | IC50 ([1]; Trypanosoma cruzi; Dm28c-Luc, 24 h, mean ± SD; read-out: Trypanocidal Activity Trypomastigotes IC50): 19.6 ± 2.3 µM; IC50 ([2]; Trypanosoma cruzi, Vero, 72 h, read-out: Trypanocidal Activity Intracellular Amastigotes IC50): 3.3 ± 1.1 µM; IC90 ([2]; Trypanosoma cruzi, Vero, 72 h): 13.7 ± 4.2 µM; IC50 ([2]; Trypanosoma cruzi, Vero, read-out: Intracellular Amastigotes pIC50 (converted)): 3.31 µM; parasite clearance in supernatant and cell monolayers after washout [5]: sustained the parasite clearance; parasite relapse / clearance after prolonged treatment [6]: prevention of spontaneous parasite relapse for up to 60 days
CC[C@@H]([C@H](C)O)n1ncn(-c2ccc(N3CCN(c4ccc(OC[C@@H]5CO[C@@](Cn6cncn6)(c6ccc(F)cc6F)C5)cc4)CC3)cc2)c1=O [posaconazole] |  |  |  |  |  |  |  |  |  |  |  |  | parasite relapse / clearance after prolonged treatment [6]: unable to achieve parasite clearance
Clc1ccc(-n2cc(C3=NCCS3)cn2)cc1Cl [Compound 2e, 2-(1-(3,4-dichlorophenyl)-1H-pyrazol-4-yl)-4,5-dihydrothiazole] | 6.9 ± 2 µM |  |  | reduction in parasite load | 15,110 ± 1990 ALU | ≤ 2.1 µM | 7.84 ± 1 µM | < 10 µM | < 6.92 µM | 30.4 ± 3.7 µM |  |  | IC50 [1, 10]: 1.9 ± 0.4 µM; inhibition at 100 µM [5]: 69%; maximum inhibition of cysteine protease activity [7]: ≤ 10%
Nc1c(C2=NCCS2)cnn1-c1ccc(Cl)cc1 [Compound 1f, 2-(5-amino-1-(4-chlorophenyl)-1H-pyrazol-4-yl)-4,5-dihydrothiazole] | > 100 µM |  | > 500 µM |  |  | 88.3 ± 7.1 µM |  | > 100 µM | > 100 µM | > 100 µM | 283 to 285 °C |  | 
Nc1c(C2=NCCS2)cnn1-c1cc(Cl)cc(Cl)c1 [Compound 1d, 2-(5-amino-1-(3,5-dichlorophenyl)-1H-pyrazol-4-yl)-4,5-dihydrothiazole] | > 100 µM |  | 416 ± 34.6 µM |  |  | > 100 µM |  | 63.2 ± 5.4 µM | 64.6 µM | > 100 µM | 232 to 234 °C | 6.6 | 
Brc1ccc(-n2cc(C3=NCCS3)cn2)cc1 [Compound 2i, 2-(1-(4-bromophenyl)-1H-pyrazol-4-yl)-4,5-dihydrothiazole] | 13.3 ± 2.8 µM |  |  | reduction in parasite load | 25,788 ± 2776 ALU | ≤ 2.1 µM | 6.8 ± 1.1 µM | < 10 µM | < 6.92 µM | 27.1 ± 3.6 µM |  | 31.8 | IC50 [1, 10]: 2.1 ± 0.9 µM; inhibition at 100 µM [5]: 89%; maximum inhibition of cysteine protease activity [7]: ≤ 10%
CC(C)C[C@H](NC(=O)[C@H]1O[C@@H]1C(=O)O)C(=O)NCCCCN=C(N)N [Compound E-64, E-64, reference compound] |  |  |  |  |  |  |  |  |  |  |  |  | inhibition of cysteine protease activity ([7]; from the lowest concentration analyzed (6.25 µM)): more than 80%
Nc1c(C2=NCCS2)cnn1-c1ccc(F)cc1 [Compound 1g, 2-(5-amino-1-(4-fluorophenyl)-1H-pyrazol-4-yl)-4,5-dihydrothiazole] | > 100 µM | <5 | 483 ± 16.6 µM |  |  | > 100 µM |  | 96.3 ± 2.7 µM | 97.7 µM | > 100 µM | 244 to 246 °C | 5.6 | 
Clc1cccc(-n2cc(C3=NCCS3)cn2)c1 [Compound 2b, 2-(1-(3-chlorophenyl)-1H-pyrazol-4-yl)-4,5-dihydrothiazole] | 8.8 ± 1.3 µM | 100.2 | 78.3 ± 7.7 µM |  |  | 0.8 ± 0.3 µM | 8.3 ± 1.9 µM | < 10 µM | ~10 µM | 31.9 ± 1.3 µM | 88 to 90 °C | 9.4 | 
Clc1cccc(-n2cc(C3=NCCS3)cn2)c1Cl [Compound 2l, 2-(1-(2,3-dichlorophenyl)-1H-pyrazol-4-yl)-4,5-dihydrothiazole] | > 100 µM | 3.44 | 88.7 ± 9.3 µM |  |  | 25.8 ± 1.9 µM |  | 25.3 ± 2.4 µM | 25.7 µM | 75.5 ± 8.3 µM | 112 to 114 °C | 3.5 | 
